Consider four compounds from ChEMBL document CHEMBL1909046, “DrugMatrix in vitro pharmacology data”.

One test addresses T1, Progesterone receptor (Bos taurus, UniProt Q690N0).
T1 sequence (Q690N0 whole entry): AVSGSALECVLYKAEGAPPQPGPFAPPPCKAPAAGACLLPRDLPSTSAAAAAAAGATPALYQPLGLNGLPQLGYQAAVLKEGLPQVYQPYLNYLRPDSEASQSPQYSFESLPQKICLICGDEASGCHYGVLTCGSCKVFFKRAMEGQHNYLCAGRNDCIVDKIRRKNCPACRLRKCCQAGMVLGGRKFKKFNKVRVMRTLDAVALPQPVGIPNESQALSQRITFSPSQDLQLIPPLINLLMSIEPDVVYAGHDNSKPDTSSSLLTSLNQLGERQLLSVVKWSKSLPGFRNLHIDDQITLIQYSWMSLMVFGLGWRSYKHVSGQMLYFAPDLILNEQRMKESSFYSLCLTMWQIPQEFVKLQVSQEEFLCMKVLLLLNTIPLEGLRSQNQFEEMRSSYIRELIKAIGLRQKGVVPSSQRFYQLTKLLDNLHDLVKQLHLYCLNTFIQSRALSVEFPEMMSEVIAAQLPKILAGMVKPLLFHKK
Briefly: DRUGMATRIX: Progesterone radioligand binding (ligand: [3H] R-5020). It counts as tissue-based, Uterus. As to conditions: Not Active = under 50% inhibition at 10 µM.
`CC(C)OC(=O)C(C)(C)Oc1ccc(C(=O)c2ccc(Cl)cc2)cc1` [FENOFIBRATE]: the IC50 entry was “Not Active”.
Take `OCCN1CCN(CCCN2c3ccccc3Sc3ccc(C(F)(F)F)cc32)CC1` [FLUPHENAZINE]: the IC50 result was “Not Active”.
Still for that read-out and setting: to `CN1C2CCCC1CC(NC(=O)c1nn(C)c3ccccc13)C2` (configuration not stated) [GRANISETRON] belongs “Not Active”; to `Nc1nc2c(c(=O)[nH]1)N(C=O)C(CNc1ccc(C(=O)N[C@@H](CCC(=O)O)C(=O)O)cc1)CN2` (some centres not stated) [LEUCOVORIN], “Not Active”.

In a further test the target is T2, Neuropeptide Y receptor type 1 (Homo sapiens, UniProt P25929). Also: in other assays of this panel Not Active means under 50% inhibition at 10 µM.
T2 sequence (P25929 whole entry): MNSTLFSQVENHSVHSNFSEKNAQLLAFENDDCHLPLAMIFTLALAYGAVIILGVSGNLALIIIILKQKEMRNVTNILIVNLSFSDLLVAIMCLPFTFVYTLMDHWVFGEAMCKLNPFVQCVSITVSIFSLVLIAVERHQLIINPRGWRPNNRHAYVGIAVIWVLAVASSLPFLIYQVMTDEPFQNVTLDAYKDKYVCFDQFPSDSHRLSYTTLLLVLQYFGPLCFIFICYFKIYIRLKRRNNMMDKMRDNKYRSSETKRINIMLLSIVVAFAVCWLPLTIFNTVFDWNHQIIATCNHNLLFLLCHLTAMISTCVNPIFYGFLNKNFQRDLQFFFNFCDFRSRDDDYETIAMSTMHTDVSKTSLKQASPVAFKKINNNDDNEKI
Experiment: not given
As to conditions: sk-n-mc. It counts as cell membranes, Membrane.
Take `CC(C)OC(=O)C(C)(C)Oc1ccc(C(=O)c2ccc(Cl)cc2)cc1` [FENOFIBRATE]: the IC50 result is “Not Active”.
Same read-out and setting: to `OCCN1CCN(CCCN2c3ccccc3Sc3ccc(C(F)(F)F)cc32)CC1` [FLUPHENAZINE] belongs “Not Active”.
For the compound `CN1C2CCCC1CC(NC(=O)c1nn(C)c3ccccc13)C2` (configuration not stated) [GRANISETRON], the IC50 entry is “Not Active”.
For the compound `Nc1nc2c(c(=O)[nH]1)N(C=O)C(CNc1ccc(C(=O)N[C@@H](CCC(=O)O)C(=O)O)cc1)CN2` (some centres not stated) [LEUCOVORIN], the IC50 result is on record as “Not Active”.

The target in another test is Aldo-keto reductase family 1 member B1 (Rattus norvegicus, UniProt P07943). Briefly: biochemical. The format is tissue-based, Lens of camera-type eye.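 Also: inhibition of aldose reductase enzyme activity, measured with DL-glyceraldehyde as the substrate; in other assays of this panel Not Active means under 50% inhibition at 10 µM.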
Details: not given
In the case of `CC(C)OC(=O)C(C)(C)Oc1ccc(C(=O)c2ccc(Cl)cc2)cc1` [FENOFIBRATE], the IC50 result is listed as “Not Active”.
The same measure, in the same setting: to `OCCN1CCN(CCCN2c3ccccc3Sc3ccc(C(F)(F)F)cc32)CC1` [FLUPHENAZINE] belongs “Not Active”; to `CN1C2CCCC1CC(NC(=O)c1nn(C)c3ccccc13)C2` (configuration not stated) [GRANISETRON], “Not Active”.
Still for that read-out and setting: to `Nc1nc2c(c(=O)[nH]1)N(C=O)C(CNc1ccc(C(=O)N[C@@H](CCC(=O)O)C(=O)O)cc1)CN2` (some centres not stated) [LEUCOVORIN] belongs “Not Active”.

In a further test the target is T3, Nitric oxide synthase, inducible (Mus musculus, UniProt P29477).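 Also: inhibition of iNOS enzyme activity measured with L-arginine as substrate; in other assays of this panel Not Active means under 50% inhibition at 10 µM.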
T3 sequence (P29477 whole entry): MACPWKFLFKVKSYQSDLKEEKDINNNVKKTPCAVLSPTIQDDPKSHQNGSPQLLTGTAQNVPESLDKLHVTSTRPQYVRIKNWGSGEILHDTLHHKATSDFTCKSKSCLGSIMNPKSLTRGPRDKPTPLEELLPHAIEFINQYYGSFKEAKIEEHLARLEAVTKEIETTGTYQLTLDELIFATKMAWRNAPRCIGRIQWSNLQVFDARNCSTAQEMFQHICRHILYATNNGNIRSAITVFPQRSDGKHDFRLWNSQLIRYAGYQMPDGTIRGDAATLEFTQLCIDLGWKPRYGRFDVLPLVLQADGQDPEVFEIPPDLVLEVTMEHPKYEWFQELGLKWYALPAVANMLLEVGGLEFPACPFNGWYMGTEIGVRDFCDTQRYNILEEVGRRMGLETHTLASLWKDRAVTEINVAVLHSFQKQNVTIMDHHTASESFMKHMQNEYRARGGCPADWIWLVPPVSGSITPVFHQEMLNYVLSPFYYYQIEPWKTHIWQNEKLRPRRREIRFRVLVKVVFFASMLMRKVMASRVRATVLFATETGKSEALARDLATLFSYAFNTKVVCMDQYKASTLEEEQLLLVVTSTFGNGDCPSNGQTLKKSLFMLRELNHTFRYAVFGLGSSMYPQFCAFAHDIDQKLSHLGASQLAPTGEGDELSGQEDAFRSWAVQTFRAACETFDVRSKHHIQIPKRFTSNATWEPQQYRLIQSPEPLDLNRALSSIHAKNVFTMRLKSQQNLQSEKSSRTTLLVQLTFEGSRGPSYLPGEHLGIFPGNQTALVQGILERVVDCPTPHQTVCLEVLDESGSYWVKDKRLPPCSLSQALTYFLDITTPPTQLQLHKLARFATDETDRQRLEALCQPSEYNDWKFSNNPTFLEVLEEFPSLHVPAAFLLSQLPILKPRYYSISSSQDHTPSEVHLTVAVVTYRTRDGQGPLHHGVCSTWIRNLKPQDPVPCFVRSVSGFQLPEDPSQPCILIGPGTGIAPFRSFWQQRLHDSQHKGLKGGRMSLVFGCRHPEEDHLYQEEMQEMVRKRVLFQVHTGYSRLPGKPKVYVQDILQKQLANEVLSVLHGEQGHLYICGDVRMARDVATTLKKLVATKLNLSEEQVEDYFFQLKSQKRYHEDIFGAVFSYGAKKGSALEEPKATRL
Experiment: not given
Further details: species or system Escherichia coli.
Details: not given
For `CC(C)OC(=O)C(C)(C)Oc1ccc(C(=O)c2ccc(Cl)cc2)cc1` [FENOFIBRATE], the IC50 entry is recorded as “Not Active”.
On the same count and under the same terms, to `OCCN1CCN(CCCN2c3ccccc3Sc3ccc(C(F)(F)F)cc32)CC1` [FLUPHENAZINE] belongs “Not Active”; to `CN1C2CCCC1CC(NC(=O)c1nn(C)c3ccccc13)C2` (configuration not stated) [GRANISETRON], “Not Active”; to `Nc1nc2c(c(=O)[nH]1)N(C=O)C(CNc1ccc(C(=O)N[C@@H](CCC(=O)O)C(=O)O)cc1)CN2` (some centres not stated) [LEUCOVORIN], “Not Active”.

The target of another test is Mitogen-activated protein kinase 1 (Homo sapiens, UniProt P28482). Briefly: DRUGMATRIX: Protein Serine/Threonine Kinase, ERK2 enzyme inhibition (substrate: Myelin Basic Protein). Further details: species or system Escherichia coli. To be noted: Not Active = under 50% inhibition at 10 µM.
Sequence of Mitogen-activated protein kinase 1 (P28482 whole entry): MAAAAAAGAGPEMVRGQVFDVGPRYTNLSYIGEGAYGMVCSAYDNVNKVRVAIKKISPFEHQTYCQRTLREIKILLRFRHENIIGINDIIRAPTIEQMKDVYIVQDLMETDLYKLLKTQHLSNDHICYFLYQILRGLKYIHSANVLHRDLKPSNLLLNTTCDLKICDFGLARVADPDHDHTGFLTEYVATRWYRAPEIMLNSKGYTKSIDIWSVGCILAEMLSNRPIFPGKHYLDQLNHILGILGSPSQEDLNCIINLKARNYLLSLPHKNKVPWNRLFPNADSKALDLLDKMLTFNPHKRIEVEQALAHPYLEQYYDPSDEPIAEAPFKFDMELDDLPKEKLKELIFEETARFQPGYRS
As for `CC(C)OC(=O)C(C)(C)Oc1ccc(C(=O)c2ccc(Cl)cc2)cc1` [FENOFIBRATE], the IC50 result is given as “Not Active”.
Same read-out and setting: the same measure for `OCCN1CCN(CCCN2c3ccccc3Sc3ccc(C(F)(F)F)cc32)CC1` [FLUPHENAZINE]: “Not Active”; for `CN1C2CCCC1CC(NC(=O)c1nn(C)c3ccccc13)C2` (configuration not stated) [GRANISETRON]: “Not Active”.

The target in a further test is Beta-2 adrenergic receptor (Homo sapiens, UniProt P07550). Kind of test: DRUGMATRIX: Adrenergic beta2 radioligand binding (ligand: [3H] CGP-12177). The format is cell membranes, CHO, Membrane. As to conditions: cho; Not Active = under 50% inhibition at 10 µM.
Sequence of Beta-2 adrenergic receptor (P07550 whole entry): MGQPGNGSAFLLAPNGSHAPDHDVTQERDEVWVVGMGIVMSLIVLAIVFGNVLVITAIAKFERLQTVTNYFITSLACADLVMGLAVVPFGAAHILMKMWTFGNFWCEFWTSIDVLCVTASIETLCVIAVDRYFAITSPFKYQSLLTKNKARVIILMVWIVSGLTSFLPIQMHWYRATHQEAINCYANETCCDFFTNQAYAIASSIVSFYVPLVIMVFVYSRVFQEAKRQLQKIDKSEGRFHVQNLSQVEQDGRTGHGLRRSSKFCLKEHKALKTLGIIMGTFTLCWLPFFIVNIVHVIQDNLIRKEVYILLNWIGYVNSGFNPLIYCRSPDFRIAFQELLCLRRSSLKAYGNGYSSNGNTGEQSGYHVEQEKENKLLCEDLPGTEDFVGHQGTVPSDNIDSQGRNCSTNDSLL
In the case of `CC(C)OC(=O)C(C)(C)Oc1ccc(C(=O)c2ccc(Cl)cc2)cc1` [FENOFIBRATE], the IC50 result is “Not Active”.
For the compound `OCCN1CCN(CCCN2c3ccccc3Sc3ccc(C(F)(F)F)cc32)CC1` [FLUPHENAZINE], the IC50 entry is recorded as “Not Active”.
Take `CN1C2CCCC1CC(NC(=O)c1nn(C)c3ccccc13)C2` (configuration not stated) [GRANISETRON]: the IC50 entry is on record as “Not Active”.
Consider `Nc1nc2c(c(=O)[nH]1)N(C=O)C(CNc1ccc(C(=O)N[C@@H](CCC(=O)O)C(=O)O)cc1)CN2` (some centres not stated) [LEUCOVORIN], for which the IC50 result was “Not Active”.

The target of a further test is T4, Neuropeptide Y receptor type 2 (Homo sapiens, UniProt P49146). Also: in other assays of this panel Not Active means under 50% inhibition at 10 µM.
T4 sequence (P49146 whole entry): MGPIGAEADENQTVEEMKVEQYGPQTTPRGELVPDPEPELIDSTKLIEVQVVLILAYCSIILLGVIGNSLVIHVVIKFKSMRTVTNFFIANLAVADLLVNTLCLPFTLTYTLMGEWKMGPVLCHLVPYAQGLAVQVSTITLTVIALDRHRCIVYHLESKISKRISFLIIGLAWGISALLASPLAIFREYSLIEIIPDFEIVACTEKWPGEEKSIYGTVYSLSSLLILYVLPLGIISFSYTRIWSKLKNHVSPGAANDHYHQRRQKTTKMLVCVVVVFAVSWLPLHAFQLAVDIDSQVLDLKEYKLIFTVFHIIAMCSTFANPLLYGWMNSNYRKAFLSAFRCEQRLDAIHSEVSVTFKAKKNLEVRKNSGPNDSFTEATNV
Experiment: not given
It counts as cell membranes, Membrane. As to conditions: kan-ts.
For `CC(C)OC(=O)C(C)(C)Oc1ccc(C(=O)c2ccc(Cl)cc2)cc1` [FENOFIBRATE], the IC50 entry was “Not Active”.
The same measure, in the same setting: the same measure for `OCCN1CCN(CCCN2c3ccccc3Sc3ccc(C(F)(F)F)cc32)CC1` [FLUPHENAZINE]: “Not Active”; for `CN1C2CCCC1CC(NC(=O)c1nn(C)c3ccccc13)C2` (configuration not stated) [GRANISETRON]: “Not Active”; for `Nc1nc2c(c(=O)[nH]1)N(C=O)C(CNc1ccc(C(=O)N[C@@H](CCC(=O)O)C(=O)O)cc1)CN2` (some centres not stated) [LEUCOVORIN]: “Not Active”.
